From ChEMBL document CHEMBL5726679, “Cycloalkane derivatives” (2017)

Assay: Electrophysiological Assay: Current record was obtained by an automated patch clamp system “IonWorks Quattro (Molecular Devices Corporation)” in Population Patch Clamp mode. The operation was conducted in accordance with the operating procedure of the system. A Dulbecco's phosphate buffer containing calcium and magnesium (Sigma) was used as an extracellular fluid, and a low C1-buffer (100 mM K-gluconate, 40 mM KCl, 3.2 mM MgCl2, 5 mM EGTA, 5 mM Hepes, pH 7.3) was used as an intracellular fluid. A test compound was dissolved in dimethylsulfoxide (DMSO) to prepare a 30 mM stock solution, so as to produce 4-fold serial dilutions with the extracellular fluid for attaining a DMSO concentration of 0.3% in measurement.The hNav 1.7/β1/β2 cells cultured to a 70-80% confluent state in a T150 flask (Sumilon) were washed with PBS and subsequently with versene (Invitrogen Corp.), and collected by allowing to react with 0.05% trypsin (Invitrogen Corp.) at 37° C. for 3 minutes. After washing with a culture medium, the resultant cells were suspended in an extracellular fluid at a concentration of […] so as to be used for the measurement. The cell membrane was perforated by using an intracellular fluid including 100 μg/ml amphotericin B (Sigma).
Type: cell-based

Compound `Cn1nccc1[C@H]1CCC[C@@H]1Oc1cc(F)c(S(=O)(=O)Nc2nncs2)cc1Cl` (relative stereo) has an IC50 of 280 nM.
